One series deals with T1, NLRP3 (Homo sapiens, UniProt Q96P20).
T1 construct: endogenous in cells
Put plainly: Human whole blood (hWB) NLRP3 assay. The series is classed as cell-based. The settings on record: LPS priming 1 μg/ml, ATP activation, read-out: hWB IC50 (raw activity data). The protocol: Heparin lithium coated tubes were used to collect blood from volunteers. Blood samples were distributed on 96 well plates using 90 μl per well. Priming was performed by adding 5 μl of LPS (O26:B6; Sigma L-2654) at a final concentration of 1 μg/ml for 4.5 hours in a humidified incubator with 37° C., 5% CO2. Thirty minutes prior to NLRP3 activation, 5 μl of a 20× compound solution or vehicle (2% DMSO) was added to each well and plates were incubated on a shaker (450 rpm) in a humidified incubator with 37° C., 5% CO2. Activation was then performed by adding 3.3 μl of a 31×ATP solution per well. At the end of the 30 minutes stimulation, the plates were centrifuged (800 g, 10 min. room temperature) and the plasma from each well was frozen at −80° C. […] levels in the supernatant were analyzed using a mesoscale discovery assay (MSD K151TUK) according to the manufacturers' instructions. Human whole blood was drawn from healthy volunteers after obtaining written informed consent.
Table D assigns each compound a code for potency in the human whole blood (hWB) NLRP3 Assay: A or B. According to the code. […] The corresponding raw activity data is also included.

Series [1] in a line: Brain levels (kp and kpu,u) after oral administration. It counts as in vivo, CDI mice. The settings on record: mice, 20 mpk PO; for Kp at 24 h / Kpu,u (unbound brain-to-plasma ratio): CDI, mouse, brain / plasma, po, 20 mg/kg; for Kp at 24 h: whole brain AUC over 24 h divided by plasma AUC; for Kpu,u (unbound brain-to-plasma ratio) / kpu,u (code): kp corrected with mouse plasma protein binding and mouse brain homogenate binding. The protocol: The in vivo total brain to plasma ratio was assessed in CDI mice after oral administration of the compound. Blood was collected at several timepoints up to 24 h, and transferred into plastic micro centrifuge tubes with EDTA-K2 as anticoagulant. Blood samples were centrifuged at 4000 g for 5 minutes at 4° C. to obtain plasma, then immediately frozen and stored at −75±15° C. prior to analysis. Animals were terminally anaesthetized with a rising concentration of CO2 gas at about 1 minute. At selected timepoints, whole brains were removed from the skull, rinsed in cold PBS to remove blood, dried with clean gauze, then frozen in liquid nitrogen and kept at −75±15° C. before analysis. At the time of analysis, brain samples were homogenized with PBS by tissue weight (g) to PBS volume (mL) ratio 1:3. Plasma and brain drug levels were quantified by LC/MS/MS on a AB Sciex Triple Quad 5500+ instrument, after separation on a HALO 160A ES-C18, 2.7 μm 2.1-50 mm column. Quantitation was performed using a calibration curve prepared in blank plasma or blank brain homogenate. The software WinNonlin (Phoenix™) was used for pharmacokinetic analysis from the concentrations versus time data, including the AUCinf and AUClast. The Kp ratio (total brain concentration over total plasma concentration) was calculated as (AUCtot,br)/(AUCtot,pl).
The unbound brain exposure was assessed as Kpuu, which is the free brain/free plasma concentration ratio (Cu,br/Cu,pl). The Cu,br/Cu,pl ratios were obtained from in vivo total brain to plasma ratios (Ctot,br/Ctot,pl) by using in vitro determined Fu,br and Fu,pl.
Plasma protein binding and brain homogenate protein binding were measured by equilibrium dialysis in a HTDialysis plate. The dialysis membranes were soaked in ultrapure water for 60 minutes to separate strips, then in 20% ethanol for 20 minutes, finally in dialysis buffer for 20 minutes. The dialysis set up was assembled according to the manufacturer's instruction. Each cell received 150 μL of plasma or brain homogenate spiked with 1 mM of compound, and dialyzed against an equal volume of dialysis buffer (PBS). The dialysis plate was sealed and incubated in an incubator at 37° C. with 5% CO2 at 100 rpm for 6 hours. At the end of incubation, compound concentration was measured in both chambers by LC-MS/MS on a Triple Quad™ 5500 from AB Inc after separation on a XSelect Hss T3 2.5μ (2.1×30 mm) column. Free fraction (Fu) was calculated as (Peak Area Ratio buffer chamber/Peak Area Ratio plasma chamber).
Kpuu was calculated as (AUCtot,br×Fu,br)/(AUCtot,pl×Fu,pl).
The below table also assigns each compound a code for kp and kpu,u values: A or B. According to the code. A represents a value of >0.3 and B represents a value of ≤0.3. […] The kpu,u was then calculated upon correcting this kp value with mouse plasma protein binding and mouse brain homogenates binding. A Kpu,u value >0.3 is brain penetrant, and Kpu,u value less than or equal to 0.3 is not brain penetrant. N.D.=not determined. The corresponding raw kp and kpu,u data is also included.

Here are results for 17 compounds from patent US12331048B2, “Pyrido-[3,4-d]pyridazine amine derivatives useful as NLRP3 inhibitors” (Ventus Therapeutics U.S., Inc., priority 2022, dated 2025).

As a reminder, the IC50 is the concentration at which inhibition is half-maximal. Usually Kp stands for the ratio of the level in a tissue or fluid to that in plasma or blood.

The structures appear in SMILES notation. Where two headings read alike, the source gives them in different places. A value given as a limit tells only on which side of the number the result lay.

T1 sequence (Q96P20 whole entry): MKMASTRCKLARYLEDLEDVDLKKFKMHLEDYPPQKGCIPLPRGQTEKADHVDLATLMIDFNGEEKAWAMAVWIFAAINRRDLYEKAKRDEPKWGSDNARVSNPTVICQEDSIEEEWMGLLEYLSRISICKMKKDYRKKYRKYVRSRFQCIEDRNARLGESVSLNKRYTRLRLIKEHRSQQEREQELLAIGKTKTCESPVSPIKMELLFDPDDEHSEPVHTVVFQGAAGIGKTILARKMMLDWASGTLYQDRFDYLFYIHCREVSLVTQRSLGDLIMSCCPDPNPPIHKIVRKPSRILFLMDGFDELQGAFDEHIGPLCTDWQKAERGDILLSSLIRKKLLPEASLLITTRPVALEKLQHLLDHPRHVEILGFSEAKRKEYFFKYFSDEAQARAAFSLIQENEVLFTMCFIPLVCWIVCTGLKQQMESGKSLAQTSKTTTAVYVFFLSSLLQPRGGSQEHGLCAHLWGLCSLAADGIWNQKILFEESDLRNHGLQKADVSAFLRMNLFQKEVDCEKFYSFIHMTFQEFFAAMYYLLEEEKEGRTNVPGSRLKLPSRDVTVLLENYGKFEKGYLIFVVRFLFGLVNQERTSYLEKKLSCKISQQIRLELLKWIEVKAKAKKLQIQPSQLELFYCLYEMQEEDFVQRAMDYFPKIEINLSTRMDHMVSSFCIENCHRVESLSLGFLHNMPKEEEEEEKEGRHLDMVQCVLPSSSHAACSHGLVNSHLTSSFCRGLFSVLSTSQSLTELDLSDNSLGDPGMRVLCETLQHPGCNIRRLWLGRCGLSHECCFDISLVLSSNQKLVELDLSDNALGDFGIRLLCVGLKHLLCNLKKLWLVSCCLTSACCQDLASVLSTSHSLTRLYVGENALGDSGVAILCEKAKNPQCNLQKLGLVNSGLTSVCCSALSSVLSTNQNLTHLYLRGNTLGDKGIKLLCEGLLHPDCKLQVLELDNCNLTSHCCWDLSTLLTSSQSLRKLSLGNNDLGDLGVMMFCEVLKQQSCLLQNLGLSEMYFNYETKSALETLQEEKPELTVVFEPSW

As to `CC1(C)COCC[C@@H]1Nc1nnc(-c2ccc(C(F)F)cc2O)c2ccncc12` (single isomer, unassigned) [Compound 17], on NLRP3, the concentration for half-maximal inhibition (IC50) worked out at 330 nM. In series [1] (read-out: kp (code)), the partition ratio (Kp) at 24 h was > 0.3. Besides, in series [1] (read-out: kp (raw)), the Kp at 24 h stood at 0.69. Also, in series [1], the Kpu,u (unbound brain-to-plasma ratio) worked out at 1.9 and the “kpu,u (code)” value was “A (A represents a value of >0.3)”.
The corresponding values for `C[C@H]1COCC[C@H]1Nc1nnc(-c2ccc(Cl)cc2O)c2ccncc12` (single isomer, unassigned) [Compound 18*] are 890 nM, > 0.3, 0.68, 0.47 and “A (A represents a value of >0.3)”.
`OCC1(CNc2nnc(-c3ccc(Cl)cc3O)c3ccncc23)CC1` [Compound 8, 5-chloro-2-(4-(((1-(hydroxymethyl)cyclopropyl)methyl)amino)pyrido[3,4-d]pyridazin-1-yl)phenol, reference compound]: the IC50 at NLRP3 was found to be 200 nM. Further, in series [1] (read-out: kp (raw)), the Kp at 24 h is 0.18. In series [1], the Kpu,u (unbound brain-to-plasma ratio) was 0.11 and the “kpu,u (code)” value is recorded as “B (B represents a value of ≤0.3)”.
`CN1CCO[C@@H](CNc2nnc(-c3ccc(C(F)(F)F)cc3O)c3ccncc23)C1` (single isomer, unassigned) [Compound 6*]: the IC50 on NLRP3 is 430 nM. Moreover, in series [1] (read-out: kp (code)), the Kp at 24 h was > 0.3. For the same compound, in series [1] (read-out: kp (raw)), the Kp at 24 h was determined as 0.66. In addition, in series [1], the Kpu,u (unbound brain-to-plasma ratio) turned out to be 2.3 and the “kpu,u (code)” value is recorded as “A (A represents a value of >0.3)”.
As to `C[C@@H]1COCC[C@H]1Nc1nnc(-c2ccc(Cl)cc2O)c2ccncc12` (single isomer, unassigned) [Compound 18A*], the IC50 at NLRP3 was 1100 nM. Also, the Kp at 24 h in series [1] (read-out: kp (code)) is > 0.3; in series [1] (read-out: kp (raw)), 0.73. In series [1], the Kpu,u (unbound brain-to-plasma ratio) stood at 0.3. The “kpu,u (code)” value in series [1] is “A (A represents a value of >0.3)”.
Regarding `Cc1ccc(-c2nnc(N[C@H]3CCOCC3(C)C)c3cnccc23)c(O)c1` (single isomer, unassigned) [Compound 13], the IC50 at NLRP3 was found to be 220 nM. The concentration ratio (Kp) at 24 h is > 0.3 in series [1] (read-out: kp (code)) and 0.6 in series [1] (read-out: kp (raw)). Further, the Kpu,u (unbound brain-to-plasma ratio) in series [1] is 0.77. In series [1], the “kpu,u (code)” value is “A (A represents a value of >0.3)”.
The corresponding values for `C[C@@H]1C[C@H](Nc2nnc(-c3ccc(Cl)cc3O)c3ccncc23)CCO1` (single isomer, unassigned) [Compound 25A*] are 580 nM, > 0.3, 1.1, 0.1 and “B (B represents a value of ≤0.3)”.
The like results for `CC1(C)CC[C@H](Nc2nnc(-c3ccc(C(F)F)cc3O)c3ccncc23)CO1` (single isomer, unassigned) [Compound 20] were, in that order, 890 nM, > 0.3, 0.61, 0.46 and “A (A represents a value of >0.3)”.
The corresponding values for `Cc1ccc(-c2nnc(N[C@H]3COC(C)(C)C3)c3cnccc23)c(O)c1F` (single isomer, unassigned) [Compound 12] are 820 nM, > 0.3, 0.33, 1.3 and “A (A represents a value of >0.3)”.
As to `C[C@@H]1C[C@@H](Nc2nnc(-c3ccc(Cl)cc3O)c3ccncc23)CCO1` (single isomer, unassigned) [Compound 25D*], the IC50 at NLRP3 is 1200 nM. Besides, the Kp at 24 h in series [1] (read-out: kp (code)) is > 0.3. The Kp at 24 h in series [1] (read-out: kp (raw)) was 1. Also, in series [1], the Kpu,u (unbound brain-to-plasma ratio) worked out at 0.2 and the “kpu,u (code)” value is “B (B represents a value of ≤0.3)”.
The corresponding values for `CC1(C)C[C@@H](Nc2nnc(-c3ccc(Cl)cc3O)c3ccncc23)CCO1` (single isomer, unassigned) [Compound 4*] are 660 nM, > 0.3, 0.81, 0.89 and “A (A represents a value of >0.3)”.
The corresponding values for `CC1(C)COCC[C@@H]1Nc1nnc(-c2ccc(C(F)(F)F)cc2O)c2ccncc12` (single isomer, unassigned) [Compound 15] are 1200 nM, > 0.3, 0.83, 2.2 and “A (A represents a value of >0.3)”.
The like results for `[2H]C([2H])([2H])OC(C)(C)CNc1nnc(-c2ccc(C(F)F)cc2O)c2ccncc12` [Compound 2, 5-(difluoromethyl)-2-(4-((2-(methoxy-d3)-2-methylpropyl)amino)pyrido[3,4-d]pyridazin-1-yl)phenol] were, in that order, 160 nM, ≤ 0.3, 0.24, 2.2 and “A (A represents a value of >0.3)”.
With `Cc1ccc(-c2nnc(N[C@H]3CCOC(C)(C)C3)c3cnccc23)c(O)c1` (single isomer, unassigned) [Compound 14], the IC50 at NLRP3 amounted to 510 nM. Besides, the values for the concentration ratio (Kp) at 24 h in series [1] (read-out: kp (code)) and in series [1] (read-out: kp (raw)) were > 0.3 and 0.64, respectively. The Kpu,u (unbound brain-to-plasma ratio) in series [1] is 0.33. Besides, the “kpu,u (code)” value in series [1] is listed as “A (A represents a value of >0.3)”.
Consider `Oc1cc(Cl)ccc1-c1nnc(N[C@H]2CCOC2)c2cnccc12` (single isomer, unassigned) [Compound 7*, reference compound], for which the IC50 at NLRP3 was determined as 800 nM. Also, the Kp at 24 h in series [1] (read-out: kp (code)) was ≤ 0.3. For the same compound, the Kp at 24 h in series [1] (read-out: kp (raw)) came to 0.13. Also, in series [1], the Kpu,u (unbound brain-to-plasma ratio) was found to be 0.15 and the “kpu,u (code)” value was “B (B represents a value of ≤0.3)”.
The like results for `CC1(C)COCC[C@@H]1Nc1nnc(-c2ccc(Cl)cc2O)c2ccncc12` (single isomer, unassigned) [Compound 3*] were, in that order, 190 nM, > 0.3, 0.58, 2.2 and “A (A represents a value of >0.3)”.
The like results for `CC1(C)COC[C@@H]1Nc1nnc(-c2ccc(Cl)cc2O)c2ccncc12` (single isomer, unassigned) [Compound 1*] were, in that order, 1000 nM, > 0.3, 0.9, 0.31 and “A (A represents a value of >0.3)”.
